From patent US20060135515A1, “Heterocyclic amides and their use treating thromboembolic diseases and tumors” (priority 2002, published 2006)
pIC50: −log10 of the molar value.

Tests used:
TF/FVIla = TF/FVIla (Homo sapiens, UniProt P08709); experiment: Inhibition of TF/factor VIIa (TF/FVIIa-IC50); type: biochemical
Excerpt: The inhibition of factor VIIa by the compounds according to the invention and the measurement of the anticoagulant and antithrombotic activity can be determined by conventional in-vitro or in-vivo methods. A conventional method for the measurement of the inhibition of factor VIIa is described, for example, by H. F. Ronning et al. in Thrombosis Research 1996, 84, 73-81.

FXa = FXa (Homo sapiens, UniProt P00742); experiment: Inhibition of factor Xa (FXa-IC50); type: biochemical
Excerpt: The inhibition of factor Xa by the compounds according to the invention and the measurement of the anticoagulant and antithrombotic activity can be determined by conventional in-vitro or in-vivo methods. A suitable method is described, for example, by J. Hauptmann et al. in Thrombosis and Haemostasis 1990, 63, 220-223.
The inhibition of factor Xa can be measured, for example by the method of T. Hara et al. in Thromb. Haemostas. 1994, 71, 314-319.

Chain of TF/FVIla (P08709 213-466 limits assumed): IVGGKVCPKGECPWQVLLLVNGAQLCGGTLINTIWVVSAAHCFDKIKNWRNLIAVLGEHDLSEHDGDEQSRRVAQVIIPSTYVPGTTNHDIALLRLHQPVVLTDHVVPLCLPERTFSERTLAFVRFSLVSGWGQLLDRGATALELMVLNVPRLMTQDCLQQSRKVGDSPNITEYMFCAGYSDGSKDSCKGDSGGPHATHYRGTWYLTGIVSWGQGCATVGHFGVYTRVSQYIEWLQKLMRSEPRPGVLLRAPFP
Chain of TF/FVIla (P08709 61-212 partner limits assumed): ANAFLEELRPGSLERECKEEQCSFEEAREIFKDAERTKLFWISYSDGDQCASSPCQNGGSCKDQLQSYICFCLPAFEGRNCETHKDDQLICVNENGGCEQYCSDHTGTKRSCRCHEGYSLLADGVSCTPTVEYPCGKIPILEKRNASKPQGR
Chain of TF/FVIla (P13726 33-295 partner): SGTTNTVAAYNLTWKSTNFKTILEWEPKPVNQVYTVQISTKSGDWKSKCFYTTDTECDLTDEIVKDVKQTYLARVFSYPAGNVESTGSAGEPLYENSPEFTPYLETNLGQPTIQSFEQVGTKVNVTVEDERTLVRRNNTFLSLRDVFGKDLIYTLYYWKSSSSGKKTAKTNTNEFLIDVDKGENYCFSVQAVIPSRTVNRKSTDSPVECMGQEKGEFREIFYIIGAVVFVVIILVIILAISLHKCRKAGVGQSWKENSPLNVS
Chain of FXa (P00742 235-488 limits assumed): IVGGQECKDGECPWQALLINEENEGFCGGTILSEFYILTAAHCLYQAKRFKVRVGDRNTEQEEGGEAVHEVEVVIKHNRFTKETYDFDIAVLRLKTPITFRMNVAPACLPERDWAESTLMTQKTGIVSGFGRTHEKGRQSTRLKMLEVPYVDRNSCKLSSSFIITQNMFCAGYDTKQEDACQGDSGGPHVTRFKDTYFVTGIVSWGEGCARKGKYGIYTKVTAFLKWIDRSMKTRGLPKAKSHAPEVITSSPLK
Chain of FXa (P00742 41-179 partner limits assumed): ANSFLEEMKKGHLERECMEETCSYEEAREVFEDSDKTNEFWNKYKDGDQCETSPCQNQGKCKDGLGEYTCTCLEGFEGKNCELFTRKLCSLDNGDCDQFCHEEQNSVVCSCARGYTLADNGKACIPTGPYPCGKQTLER

| pIC50 (TF/FVIla) | pIC50 (FXa) | SMILES |
| --- | --- | --- |
| 6.74 | 6.72 | CCCC(NC(=O)Nc1ccc(Cl)s1)C(=O)Nc1ccc(N2CCOCC2=O)cc1 (stereo not shown) [Compound A1, N-[4-(3-oxomorpholin-4-yl)-phenyl]-2-[3-(5-chlorothiophen-2-yl)ureido]valeramide] |
| 7.18 | 7.18 | CCC[C@@H](NC(=O)Nc1ccc(Cl)s1)C(=O)Nc1ccc(N2CCOCC2=O)c(C)c1 [Compound A2, (R)-2-[3-(5-chlorothiophen-2-yl)ureido]-N-[4-(3-oxomorpholin-4-yl)-3-methylphenyl]valeramide] |
